{
  "source": "patent US10214507B2",
  "about": "“Carbazole-containing amides, carbamates, and ureas as cryptochrome modulators” (Reset Therapeutics, Inc., priority 2014, dated 2019)",
  "key": {"[1]": {"tested_on": "core clock gene mRNAs in liver of Balb/c mice", "assay": "24 hour gene expression study, liver mRNA by RT-qPCR, Balb/c mice", "format": "in vivo, mouse", "conditions": "50 mg/kg BID PO", "method": "E.Z.N.A.® HP Total RNA Isolation Kits (R6812-01 and the protocol described in the Manual, Revised 2010) were utilized to prepare and isolate RNA from the liver samples. To prepare the RNA samples, 10-30 mg of sample was removed from RNA-Later and placed in a 1.5 ml microfuge tube. GTC lysis buffer (700 μl) was added to the tissue, which was homogenized with a rotor-stator homogenizer (e.g. Tissue-Tearor, Model #985370 BioSpec Products with 4.5 mm probe, Cat. #985370-04), and then centrifuged at full speed (>13,000×g) for 5 minutes. The cleared supernatant was transferred by pipetting to a DNA Clearance Column Pre-inserted in a 2 mL Collection Tube. The assembled column was centrifuged at 13,000×g for 1 minute, and the flow-through was saved. An equal volume (700 μl) of 70% ethanol was added to the lysate and mixed. The sample was then applied to a HiBind RNA spin column placed into a 2 ml collection tube, which was centrifuged at 10,000×g for 60 seconds at room temperature. RNA Wash Buffer I (250 μl) was added by pipetting directly onto a new HiBind RNA column inserted in a 2 ml collection tube. The assembled column was centrifuged at 10,000×g for 60 seconds. The RNA column was placed into a new 2 ml collection tube. DNase I stock solution is pipetted (75 μl) directly onto the surface of the HiBind RNA resin in each column (Using DNAse Digestion with RNase Free DNase Set (E1091): for each HiBind RNA column, the DNase I stock solution was prepared as followed: E.Z.N.A.® DNase I Digestion Buffer 73.5μl, RNase Free DNase I (20 Kunitz/μl) 1.5 μl=Total Volume 75 μl.). The column with bound RNA was incubated at room temperature (25-30° C.) for 15 minutes. RNA Wash Buffer I (500 μl) was added to the column and placed on a bench top for 2 minutes. After centrifuging at 10,000×g for 60 seconds, discarding the flow-through, 500 μl of RNA Wash Buffer II was added and centrifuged at 10,000×g for 60 seconds. Another 500 μl of RNA Wash Buffer II was added and the column assembly was centrifuged at 10,000×g for 60 seconds. The column was centrifuged for 2 minutes at maximum speed to completely dry the HiBind matrix. […]\nRediPlate 96 RiboGreen RNA Quantification Kit (Invitrogen) RediPlate standard curve was prepared by transferring 20 μl reconstituted RNA standard to a RediPlate well reconstituted in 180 μl RediPlate TE buffer. […] After transferring 5 μl to RediPlate well reconstituted in 195 μl TE buffer and incubating 10 min. at RT, Fluorescence Intensity of wells with standards and samples were read in a Tecan M200 with Excitation set at 480 nm and Emission set at 520 nm with the gain set to −70%. […] A standard curve was generated in GraphPad Prism and sample readings (unknowns) are interpolated via linear regression analysis, and the RNA sample concentrations were calculated. […]"}, "[2]": {"tested_on": "core clock gene mRNAs in livers of ICR mice", "assay": "Four day study, liver clock gene mRNA by RT-qPCR, ICR mice", "format": "in vivo, mouse", "conditions": "50 mg/kg PO BID 4 days", "method": "Male ICR mice (weighing 30-35 g), obtained from Charles River Laboratories (Hollister, CA), were used for the experiment following at least 3 days of acclimation. Mice were dosed with vehicle (WFI or 10% Kolliphor) or compound (50 mg/kg, dose volume 5 mL/kg, PO) for 4 days BID (twice a day), beginning in the afternoon of the first day. The last dose of compound or vehicle was administered on the morning of harvest. On the day of harvest (6 hours following the final dose), mice were euthanized by CO2 asphyxiation and 50 mg of liver tissue was excised and placed in a tube containing 500 μl of RNA later.\nE.Z.N.A.® HP Total RNA Isolation Kits (R6812-01 and the protocol described in the Manual, Revised 2010) were utilized to prepare and isolate RNA from the liver samples. To prepare the RNA samples, 10-30 mg of sample was removed from RNA-Later and placed in a 1.5 ml microfuge tube. GTC lysis buffer (700 μl) was added to the tissue, which was homogenized with a rotor-stator homogenizer (e.g. Tissue-Tearor, Model #985370 BioSpec Products with 4.5 mm probe, Cat. #985370-04), and then centrifuged at full speed (>13,000×g) for 5 minutes. The cleared supernatant was transferred by pipetting to a DNA Clearance Column Pre-inserted in a 2 mL Collection Tube. The assembled column was centrifuged at 13,000×g for 1 minute, and the flow-through was saved. An equal volume (700 μl) of 70% ethanol was added to the lysate and mixed. The sample was then applied to a HiBind RNA spin column placed into a 2 ml collection tube, which was centrifuged at 10,000×g for 60 seconds at room temperature. RNA Wash Buffer I (250 μl) was added by pipetting directly onto a new HiBind RNA column inserted in a 2 ml collection tube. The assembled column was centrifuged at 10,000×g for 60 seconds. The RNA column was placed into a new 2 ml collection tube. DNase I stock solution is pipetted (75 μl) directly onto the surface of the HiBind RNA resin in each column (Using DNAse Digestion with RNase Free DNase Set (E1091): for each HiBind RNA column, the DNase I stock solution was prepared as followed: E.Z.N.A.® DNase I Digestion Buffer 73.5μl, RNase Free DNase I (20 Kunitz/μl) 1.5 μl=Total Volume 75 μl.). The column with bound RNA was incubated at room temperature (25-30° C.) for 15 minutes. RNA Wash Buffer I (500 μl) was added to the column and placed on a bench top for 2 minutes. After centrifuging at 10,000×g for 60 seconds, discarding the flow-through, 500 μl of RNA Wash Buffer II was added and centrifuged at 10,000×g for 60 seconds. Another 500 μl of RNA Wash Buffer II was added and the column assembly was centrifuged at 10,000×g for 60 seconds. The column was centrifuged for 2 minutes at maximum speed to completely dry the HiBind matrix. The column was placed in a clean 1.5 ml microcentrifuge tube and 40-70 μl of molecular biology grade water is added. After sitting for 1 minute, the column was centrifuged for 2 minutes at maximum speed to elute the RNA. The isolated RNA was collected into the collection tube.\nRediPlate 96 RiboGreen RNA Quantification Kit (Invitrogen) RediPlate standard curve was prepared by transferring 20 μl reconstituted RNA standard to a RediPlate well reconstituted in 180 μl RediPlate TE buffer. For liver RNAs prepared from 30-100 mg of tissue using a kit similar to the Omega Bio-Tek HP Total RNA Kit and eluted in RNAse-free water in a volume of 50 μl (microliters), 5 μl of the total RNA is diluted in 195 μl of RediPlate TE buffer (1:40 dilution of RNA), mix. After transferring 5 μl to RediPlate well reconstituted in 195 μl TE buffer and incubating 10 min. at RT, Fluorescence Intensity of wells with standards and samples were read in a Tecan M200 with Excitation set at 480 nm and Emission set at 520 nm with the gain set to −70%. Alternatively, one can use the FlexStation 3 with Ex 488 nm and Em 525 nm and a Cutoff of 515 nm."}},
  "data": [
    {"smiles": "O=C1NCCN1CC(O)Cn1c2ccc(F)cc2c2cc(F)ccc21", "note": "(stereo not shown) [Compound 72, 1-(3-(3,6-difluoro-9H-carbazol-9-yl)-2-hydroxypropyl)imidazolidin-2-one]", "values": [
      {"measurement": "Cry2 mRNA daytime peak in liver", "setting": "[1]", "result": "strongly attenuated"},
      {"measurement": "Bmal1 mRNA in liver", "setting": "[1]; at ZT8 and 32 hours after original ZT0", "result": "substantially increased"},
      {"measurement": "Cry1 mRNA in liver", "setting": "[1]; peak of expression in dark period", "result": "suppressed"},
      {"measurement": "Per2 mRNA in liver over 24 hours", "setting": "[1]; vs vehicle", "result": "suppressed"},
      {"measurement": "Cry2 transcripts", "setting": "[2]; ICR mice liver", "result": "decrease"},
      {"measurement": "increase in Bmal1 mRNA at ZT6", "setting": "[2]; ICR mice liver", "result": 4, "unit": "fold"},
      {"measurement": "liver Per2 expression", "setting": "[2]; ICR mice, ZT6", "result": "suppression"}
    ]}
  ]
}
